Results: US9233976B2, “Berbamine derivatives” (CITY OF HOPE, priority 2009, dated 2016)
One block for each compound: values may come before it.

Experiments:
[1] = system: Imatinib-resistant leukemia (K562/ADR) cells; assay: Cell viability in imatinib-resistant leukemia cells; type: cell-based
Procedure: Imatinib-resistant leukemia (K562/ADR) cells (5,000 cells/well) were treated with different concentrations (0.6-40 μM in DMSO) of BA #1, BA #3 and BA #4 respectively for 48 hours and cell viability was measured.

[2] = system: A2058 human melanoma cell line; assay: MTS cell viability assay in A2058 cells; type: cell-based; settings: A2058, 48 h
Procedure: (§1) IC50 of values of berbamine derivatives were determined in cancer cell lines DU145 and A2058 respectively. DU145 and A2058 cells (5,000 cells/well) were treated with berbamine derivatives in a dose-dependent manner (0.1 to 20 μM in 1% DMSO for 48 h. Then, MTS assay for cell viability were carried out to determine the IC50 values. Four samples were tested for each berbamine derivatives at each concentration in each cell line, and the averaged data were shown in Table 1 and FIGS. 1-8.

[3] = system: DU145 prostate cancer cell line; assay: MTS cell viability assay in DU145 cells; type: cell-based; settings: DU145, 48 h
Procedure: as §1

A2058 cells = assay: Annexin V-FITC apoptosis assay; type: cell-based; settings: 0-10 μM, 48 hours
Procedure: A2058 cells were treated with BA #3 in a dose dependent manner (0-10 μM) for 48 hours.

melanoma A375 cells = assay: MTS cell viability assay in A375 cells; type: cell-based; settings: Homo sapiens, A-375, A375, 48 h
Procedure: (§2) Each type of cells (5,000 or 10,000 cells/well) were treated with different concentration (0.1 μM to 20 μM in 1% DMSO of berbamine and BA #3 respectively for 48 h. Then, MTS assay for cell viability were carried out to determine the IC50 values. Four samples were tested for each test compound at each concentration for each type of cells, and the averaged data were shown in Table 4 and FIGS. 12-13.

Jak2 kinase = Jak2 kinase (Homo sapiens, UniProt O60674); assay: In vitro Jak2 kinase assay with peptide substrate; type: biochemical; settings: activated recombinant protein with peptide substrate and ATP
From the text: (§3) To determine whether BA #3 inhibits activities of Src kinase, Jak2 kinase, Jak1 kinase and Tyk2 kinase in vitro, activated recombinant proteins were mixed with peptide substrates and ATP in the absence or the presence of BA #3. […] However, BA #3 reduced Jak2 autophosphorylation kinase activity at Tyr1007/1008 sites in vitro in the reaction of mixture of non-activated recombinant Jak2 protein and ATP in the absence of substrates (FIG. 19).

Tyk2 kinase = Tyk2 kinase (Homo sapiens, UniProt P29597); assay: In vitro Tyk2 kinase assay with peptide substrate; type: biochemical; settings: activated recombinant protein with peptide substrate and ATP
From the text: as §3

[4] = system: human acute lymphocytic leukemia (Reh) cells; assay: MTS cell viability assay in Reh cells; type: cell-based; settings: 48 h
Procedure: as §2

[5] = Maximum tolerated dose (MTD) study, body weight; type: in vivo; settings: mice, oral, 50 mg/kg and 100 mg/kg every day for 5 days
Procedure: Three test groups of mice (four mice per group) were orally administrated with vehicle only, 50 mg/kg BA #3 and 100 mg/kg BA #3 respectively every day for 5 days. Mice were weighed every day. Two sets of experiments were carried out (FIGS. 22(A) and (B)).

[6] = system: ovarian cancer SKOV3 cells; assay: MTS cell viability assay in SKOV3 cells; type: cell-based; settings: Homo sapiens, SK-OV-3, SKOV3, 48 h
Procedure: as §2

Src kinase = Src kinase (Homo sapiens, UniProt P12931); assay: In vitro Src kinase assay with peptide substrate; type: biochemical; settings: activated recombinant protein with peptide substrate and ATP
From the text: as §3

Jak2/Stat3 signaling [7] = assay: Western blot of Jak2/Stat3 signaling in A2058 melanoma cells; type: cell-based; settings: 0-10 μM for 4 hour or 10 μM for 0-24 hour
Procedure: (§4) To determine whether BA #3 block Jak2/Stat3 or Src/Stat3 signaling pathway, A2058 melanoma (A and B) and erythroleukemia HEL cells were treated with BA #3 in a dose- or time-dependent manner. Western blots were performed with specific antibodies to p-Jak2, p-Src, p-Stat3, p-AKT, Jak2, Src, Stat3 and AKT.

[8] = system: Human normal dermal fibroblast (NHDF) cells; assay: Cell viability in normal dermal fibroblasts; type: cell-based
[9] = system: pancreatic cancer (PANC-1) cells; assay: MTS cell viability assay in PANC-1 cells; type: cell-based; settings: Homo sapiens, PANC-1, 48 h
Procedure: as §2

[10] = system: human erythroleukemia HEL (homozygous JAK2 V617F mutation) cells; assay: MTS cell viability assay in HEL cells; type: cell-based; settings: HEL Jak2 V617 mutation, 48 h
Procedure: HEL Jak2 V617 mutation cells (10,000 cells/well) were treated with different concentration (0.1 μM to 20 μM in 1% DMSO of berbamine, BA #3, and BA #10 respectively for 48 h. Then, MTS assay for cell viability were carried out to determine the IC50 values. Four samples were tested for each test compound at each concentration, and the averaged data were shown in Table 3 and FIGS. 10-11.

[11] = system: human acute lymphoblastic leukemia (Molt4) cells; assay: MTS cell viability assay in Molt4 cells; type: cell-based; settings: MOLT-4, Molt4, 48 h
Procedure: as §2

melanoma G361 cells = assay: MTS cell viability assay in G361 cells; type: cell-based; settings: Homo sapiens, G-361, G361, 48 h
Procedure: as §2

Jak2/Stat3 signaling [12] = assay: Western blot of Jak2/Stat3 signaling in erythroleukemia HEL cells; type: cell-based; settings: 0-10 μM, 4 hour
Procedure: as §4

melanoma SK-MEL-28 cells = assay: MTS cell viability assay in SK-MEL-28 cells; type: cell-based; settings: Homo sapiens, SK-MEL-28, 48 h
Procedure: as §2

Mcl-1 = assay: Western blot of Mcl-1 protein; type: cell-based; settings: 5 μM, 24 h
Procedure: (§5) To determine whether BA #3 down-regulates Stat3 downstream anti-apototic proteins Mcl-1 and Bcl-xL, cells were treated with BA #3 in a dose-dependent manner for 24 h. Western blots were performed with specific antibodies to Mcl-1 and Bcl-xL.

[13] = system: ovarian cancer OVCAR5 cells; assay: MTS cell viability assay in OVCAR5 cells; type: cell-based; settings: Homo sapiens, OVCAR-5, OVCAR5, 48 h
Procedure: as §2

Bcl-xL = assay: Western blot of Bcl-xL protein; type: cell-based; settings: 5 μM, 24 h
Procedure: as §5

Jak1 kinase = Jak1 kinase (Homo sapiens, UniProt P23458); assay: In vitro Jak1 kinase assay with peptide substrate; type: biochemical; settings: activated recombinant protein with peptide substrate and ATP
From the text: as §3

[14] = system: multiple myeloma (U266) cells; assay: MTS cell viability assay in U266 cells; type: cell-based; settings: Homo sapiens, U-266, U266, 48 h
Procedure: as §2

melanoma SK-MEL-5 cells = assay: MTS cell viability assay in SK-MEL-5 cells; type: cell-based; settings: Homo sapiens, SK-MEL-5, 48 h
Procedure: as §2

[15] = biological target: non-activated recombinant Jak2 protein (autophosphorylation at Tyr1007/1008) (Homo sapiens, UniProt O60674); assay: In vitro Jak2 autophosphorylation kinase assay; type: biochemical; settings: non-activated recombinant Jak2 and ATP, no substrate, densitometry; read-out: IC50 for inhibition of autophosphorylation kinase activity
From the text: as §3, with “FIG. 19. In vitro Jak2 autophosphorylation kinase assay of BA #3. A) Autophosphorylation of Jak2 at Tyr1007/1008 was required for its catalytic activity, non-activated recombinant Jak2 protein was mixed with ATP in the absence or presence of BA #3; B) inhibitory activity of Jak2 autophosphorylation based on the densitometry of FIG. 19(A). To” for “To”

cancer cell lines = assay: IC50 in cancer cell lines tested (summary statement); type: cell-based; settings: summary over cell lines tested
From the text: For example, berbamine derivatives (e.g. BA #3) show significant (at least 10-fold) improvement in activity over berbamine in cancer cell lines tested (e.g. K562/ADR). Berbamine derivatives (e.g. BA #3) also show inhibition of Jak2/Stat3 signaling in cancer cell lines (e.g. A2058, erythroleukemia HEL cells), and show down-regulation of Mcl-1 and Bcl-xL proteins.

Sequence of Src kinase (P12931 whole entry): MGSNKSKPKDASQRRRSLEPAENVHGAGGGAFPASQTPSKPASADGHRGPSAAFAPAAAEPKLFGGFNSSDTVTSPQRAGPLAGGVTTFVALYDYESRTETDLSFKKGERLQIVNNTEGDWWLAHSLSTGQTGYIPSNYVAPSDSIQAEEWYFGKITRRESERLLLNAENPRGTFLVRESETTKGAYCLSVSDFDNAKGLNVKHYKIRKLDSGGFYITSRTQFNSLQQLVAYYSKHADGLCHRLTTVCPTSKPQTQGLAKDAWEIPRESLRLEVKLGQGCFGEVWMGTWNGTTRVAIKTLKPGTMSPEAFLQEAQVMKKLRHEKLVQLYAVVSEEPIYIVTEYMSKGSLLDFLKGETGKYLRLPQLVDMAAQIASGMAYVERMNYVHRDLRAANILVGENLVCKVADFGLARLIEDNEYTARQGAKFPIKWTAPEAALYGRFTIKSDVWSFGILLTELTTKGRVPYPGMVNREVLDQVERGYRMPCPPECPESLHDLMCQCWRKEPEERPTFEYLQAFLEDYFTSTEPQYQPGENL
Sequence of Tyk2 kinase (P29597 whole entry): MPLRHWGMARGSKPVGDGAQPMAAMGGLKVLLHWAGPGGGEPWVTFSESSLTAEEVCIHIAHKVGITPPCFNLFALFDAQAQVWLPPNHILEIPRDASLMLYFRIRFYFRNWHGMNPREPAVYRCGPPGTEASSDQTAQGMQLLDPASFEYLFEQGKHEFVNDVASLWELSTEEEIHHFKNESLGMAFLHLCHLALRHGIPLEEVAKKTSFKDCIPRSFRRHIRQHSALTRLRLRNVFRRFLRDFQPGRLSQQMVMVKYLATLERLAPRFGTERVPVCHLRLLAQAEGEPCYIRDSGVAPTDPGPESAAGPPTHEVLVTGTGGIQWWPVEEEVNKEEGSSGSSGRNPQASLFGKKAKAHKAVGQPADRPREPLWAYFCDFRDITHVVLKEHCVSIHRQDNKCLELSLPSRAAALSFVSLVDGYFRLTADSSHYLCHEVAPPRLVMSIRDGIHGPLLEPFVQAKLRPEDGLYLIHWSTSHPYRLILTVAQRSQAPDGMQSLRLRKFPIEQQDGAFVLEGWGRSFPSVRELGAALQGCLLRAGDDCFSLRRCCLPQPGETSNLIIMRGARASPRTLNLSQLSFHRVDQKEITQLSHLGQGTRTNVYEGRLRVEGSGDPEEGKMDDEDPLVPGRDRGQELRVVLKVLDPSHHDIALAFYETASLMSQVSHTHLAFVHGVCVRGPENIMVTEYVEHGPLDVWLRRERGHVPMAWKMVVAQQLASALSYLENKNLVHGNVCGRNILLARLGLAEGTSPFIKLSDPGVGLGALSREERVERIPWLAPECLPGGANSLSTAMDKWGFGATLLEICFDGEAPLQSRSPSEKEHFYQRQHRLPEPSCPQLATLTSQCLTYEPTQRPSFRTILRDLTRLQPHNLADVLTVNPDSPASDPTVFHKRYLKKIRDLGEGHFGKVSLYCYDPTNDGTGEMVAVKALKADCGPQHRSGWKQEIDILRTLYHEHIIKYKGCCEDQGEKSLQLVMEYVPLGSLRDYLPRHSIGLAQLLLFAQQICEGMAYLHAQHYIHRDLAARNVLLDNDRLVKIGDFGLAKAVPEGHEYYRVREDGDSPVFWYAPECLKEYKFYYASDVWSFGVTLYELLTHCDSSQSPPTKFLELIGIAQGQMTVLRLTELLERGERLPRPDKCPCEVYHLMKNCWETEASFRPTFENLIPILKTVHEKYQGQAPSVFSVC
Sequence of Jak1 kinase (P23458 whole entry): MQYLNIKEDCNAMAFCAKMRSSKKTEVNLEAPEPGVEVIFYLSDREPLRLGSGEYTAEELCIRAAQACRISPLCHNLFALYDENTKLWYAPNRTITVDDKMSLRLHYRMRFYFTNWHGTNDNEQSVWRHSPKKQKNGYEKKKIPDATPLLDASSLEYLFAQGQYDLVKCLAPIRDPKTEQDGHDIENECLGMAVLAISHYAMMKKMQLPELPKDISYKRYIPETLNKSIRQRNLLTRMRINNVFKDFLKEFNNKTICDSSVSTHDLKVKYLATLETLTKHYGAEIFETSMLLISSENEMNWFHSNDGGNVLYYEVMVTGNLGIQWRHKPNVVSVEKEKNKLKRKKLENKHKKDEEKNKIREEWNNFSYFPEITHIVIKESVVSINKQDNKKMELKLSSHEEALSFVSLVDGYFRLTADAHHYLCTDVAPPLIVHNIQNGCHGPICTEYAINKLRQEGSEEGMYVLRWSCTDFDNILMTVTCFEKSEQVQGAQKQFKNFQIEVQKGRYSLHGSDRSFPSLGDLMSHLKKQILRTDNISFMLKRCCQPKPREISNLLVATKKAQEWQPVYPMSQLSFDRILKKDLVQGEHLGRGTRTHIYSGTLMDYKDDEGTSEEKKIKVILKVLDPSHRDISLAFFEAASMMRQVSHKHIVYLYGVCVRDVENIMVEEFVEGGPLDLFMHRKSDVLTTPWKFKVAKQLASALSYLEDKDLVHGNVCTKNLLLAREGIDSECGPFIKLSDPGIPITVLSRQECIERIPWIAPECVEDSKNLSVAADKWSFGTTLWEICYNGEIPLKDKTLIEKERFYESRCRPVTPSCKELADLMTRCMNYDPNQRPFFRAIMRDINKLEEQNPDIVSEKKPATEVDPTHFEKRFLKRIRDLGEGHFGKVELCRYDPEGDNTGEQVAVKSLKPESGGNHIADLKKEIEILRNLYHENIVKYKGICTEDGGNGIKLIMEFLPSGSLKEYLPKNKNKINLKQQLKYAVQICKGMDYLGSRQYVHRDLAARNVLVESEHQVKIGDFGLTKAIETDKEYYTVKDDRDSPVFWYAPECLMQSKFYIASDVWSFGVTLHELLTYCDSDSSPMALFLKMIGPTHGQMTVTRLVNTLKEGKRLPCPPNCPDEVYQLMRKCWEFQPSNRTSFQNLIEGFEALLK
Sequence of non-activated recombinant Jak2 protein (autophosphorylation at Tyr1007/1008) (O60674 whole entry): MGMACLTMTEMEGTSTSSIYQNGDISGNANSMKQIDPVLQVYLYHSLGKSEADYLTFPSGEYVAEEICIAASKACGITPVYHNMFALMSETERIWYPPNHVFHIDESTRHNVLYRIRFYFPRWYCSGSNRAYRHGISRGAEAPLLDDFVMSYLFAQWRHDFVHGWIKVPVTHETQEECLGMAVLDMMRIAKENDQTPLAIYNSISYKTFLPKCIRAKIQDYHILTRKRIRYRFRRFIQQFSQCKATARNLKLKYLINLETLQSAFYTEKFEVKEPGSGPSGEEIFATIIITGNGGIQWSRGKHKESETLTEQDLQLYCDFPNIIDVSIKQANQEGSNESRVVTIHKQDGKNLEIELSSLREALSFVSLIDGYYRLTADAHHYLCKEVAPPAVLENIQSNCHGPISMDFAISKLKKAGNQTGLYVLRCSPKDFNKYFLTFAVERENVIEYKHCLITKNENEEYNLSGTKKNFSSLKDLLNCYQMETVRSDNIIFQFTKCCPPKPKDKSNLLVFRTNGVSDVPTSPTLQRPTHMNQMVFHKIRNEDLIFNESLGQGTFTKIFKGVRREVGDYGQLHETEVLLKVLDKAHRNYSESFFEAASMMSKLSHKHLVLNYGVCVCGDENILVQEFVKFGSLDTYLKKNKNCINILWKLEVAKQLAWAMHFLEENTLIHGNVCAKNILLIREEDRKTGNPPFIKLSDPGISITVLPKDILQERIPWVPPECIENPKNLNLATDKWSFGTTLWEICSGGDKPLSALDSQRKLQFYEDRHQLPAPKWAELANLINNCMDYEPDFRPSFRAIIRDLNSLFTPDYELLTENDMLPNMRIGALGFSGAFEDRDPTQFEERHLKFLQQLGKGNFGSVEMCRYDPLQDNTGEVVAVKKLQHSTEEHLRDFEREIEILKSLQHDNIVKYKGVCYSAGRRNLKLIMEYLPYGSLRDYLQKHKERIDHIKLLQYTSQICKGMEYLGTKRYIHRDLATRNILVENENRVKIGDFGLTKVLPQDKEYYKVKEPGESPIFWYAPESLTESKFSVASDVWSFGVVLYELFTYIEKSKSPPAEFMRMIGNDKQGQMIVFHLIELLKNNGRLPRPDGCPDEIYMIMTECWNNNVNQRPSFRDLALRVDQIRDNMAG
Sequence of Jak2 kinase (O60674 whole entry): as above

IC50 ([1]; 48 hours): 6.4 µM | IC50 [2]: 7.4 µM | IC50 [3]: 9.4 µM
SMILES: COc1cc2c3cc1Oc1c(OC)c(OC)cc4c1[C@@H](Cc1ccc(OCCCNC(=O)c5cncs5)c(c1)Oc1ccc(cc1)C[C@@H]3N(C)CC2)N(C)CC4 [BA #1]

IC50 [2]: 14.6 µM | IC50 [3]: 15.2 µM
SMILES: COc1cc2c3cc1Oc1c(OC)c(OC)cc4c1[C@@H](Cc1ccc(OCCCNC(=O)c5cncs5)c(c1)Oc1ccc(cc1)C[C@@H]3N(C)CC2)N(C)CC4 [BA #2]

SMILES: COc1cc2c3cc1Oc1c(OC)c(OC)cc4c1[C@@H](Cc1ccc(OCCCN5C(=O)c6ccccc6C5=O)c(c1)Oc1ccc(cc1)C[C@@H]3N(C)CC2)N(C)CC4 [BA #3]
apoptosis (Annexin V-FITC) (A2058 cells): induced apoptosis | IC50 (melanoma A375 cells): 3.7 µM | improvement in activity over berbamine [1]: at least 10 fold | IC50 ([1]; Homo sapiens, K562/Adr, 48 h): 1.1 µM | inhibition of Jak2 kinase activity (Jak2 kinase): did not inhibit | inhibition of Tyk2 kinase activity (Tyk2 kinase): did not inhibit | IC50 [4]: 2.9 µM | body weight versus vehicle [5]: no significant weight differences | IC50 ([2]; Homo sapiens): 2.9 µM | IC50 [6]: 3.9 µM | inhibition of Src kinase activity (Src kinase): did not inhibit | Jak2/Stat3 signaling (phosphorylations of Jak, Src, Stat3 and AKT) (Jak2/Stat3 signaling [7]): inhibited Jak2/Stat3 signaling | IC50 ([8]; Homo sapiens, 48 h): 7.5 µM | IC50 [9]: 6.4 µM | IC50 [10]: 3.2 µM | IC50 [11]: 3.9 µM | IC50 (melanoma G361 cells): 3.1 µM | IC50 ([3]; Homo sapiens, DU-145, 48 h): 3.4 µM | Jak2/Stat3 signaling (phosphorylations of Jak, Src, Stat3 and AKT) (Jak2/Stat3 signaling [12]): inhibited Jak2/Stat3 signaling | IC50 (melanoma SK-MEL-28 cells): 3 µM | Mcl-1 protein level (Mcl-1): down-regulated | IC50 [13]: 2.8 µM | Bcl-xL protein level (Bcl-xL): down-regulated | inhibition of Jak1 kinase activity (Jak1 kinase): did not inhibit | IC50 [14]: 6.7 µM | IC50 (melanoma SK-MEL-5 cells): 3.3 µM | IC50 [15]: 0.69 µM

IC50 ([1]; 48 hours): 3 µM | IC50 [2]: 14.3 µM | IC50 [3]: 15.5 µM
SMILES: COc1cc2c3cc1Oc1c(OC)c(OC)cc4c1[C@@H](Cc1ccc(OCCCNC(=O)c5cncs5)c(c1)Oc1ccc(cc1)C[C@@H]3N(C)CC2)N(C)CC4 [BA #4]

IC50 [2]: 3.9 µM | IC50 [3]: 7.9 µM
SMILES: COc1cc2c3cc1Oc1c(OC)c(OC)cc4c1[C@@H](Cc1ccc(OCCCNC(=O)c5cncs5)c(c1)Oc1ccc(cc1)C[C@@H]3N(C)CC2)N(C)CC4 [BA #5]

IC50 [2]: 3.4 µM | IC50 [3]: 3.5 µM
SMILES: COc1cc2c3cc1Oc1c(OC)c(OC)cc4c1[C@@H](Cc1ccc(OCCCNC(=O)c5cncs5)c(c1)Oc1ccc(cc1)C[C@@H]3N(C)CC2)N(C)CC4 [BA #6]

IC50 [2]: 3.5 µM | IC50 [3]: 6.9 µM
SMILES: COc1cc2c3cc1Oc1c(OC)c(OC)cc4c1[C@@H](Cc1ccc(OCCCNC(=O)c5cncs5)c(c1)Oc1ccc(cc1)C[C@@H]3N(C)CC2)N(C)CC4 [BA #7]

IC50 [2]: 7.1 µM | IC50 [3]: 6.6 µM
SMILES: COc1cc2c3cc1Oc1c(OC)c(OC)cc4c1[C@@H](Cc1ccc(OCCCNC(=O)c5cncs5)c(c1)Oc1ccc(cc1)C[C@@H]3N(C)CC2)N(C)CC4 [BA #8]

IC50 [2]: 8.1 µM | IC50 [3]: 7.7 µM
SMILES: COc1cc2c3cc1Oc1c(OC)c(OC)cc4c1[C@@H](Cc1ccc(OCCCNC(=O)c5cncs5)c(c1)Oc1ccc(cc1)C[C@@H]3N(C)CC2)N(C)CC4 [BA #9]

IC50 [2]: 3.4 µM | IC50 [10]: 2.8 µM | IC50 [3]: 3.7 µM
SMILES: COc1cc2c3cc1Oc1c(OC)c(OC)cc4c1[C@@H](Cc1ccc(OCCCNC(=O)c5cncs5)c(c1)Oc1ccc(cc1)C[C@@H]3N(C)CC2)N(C)CC4 [BA #10]
IC50 ([8]; Homo sapiens, 48 h): 9.4 µM

IC50 [2]: 8.3 µM | IC50 [3]: 12.3 µM
SMILES: COc1cc2c3cc1Oc1c(OC)c(OC)cc4c1[C@@H](Cc1ccc(OCCCNC(=O)c5cncs5)c(c1)Oc1ccc(cc1)C[C@@H]3N(C)CC2)N(C)CC4 [BA #11]

IC50 [2]: 3.3 µM | IC50 [3]: 5.6 µM
SMILES: COc1cc2c3cc1Oc1c(OC)c(OC)cc4c1[C@@H](Cc1ccc(OCCCNC(=O)c5cncs5)c(c1)Oc1ccc(cc1)C[C@@H]3N(C)CC2)N(C)CC4 [BA #12]
IC50 ([8]; 48 hours): 9.2 µM

IC50 [2]: 8.2 µM | IC50 [3]: 13.6 µM
SMILES: COc1cc2c3cc1Oc1c(OC)c(OC)cc4c1[C@@H](Cc1ccc(OCCCNC(=O)c5cncs5)c(c1)Oc1ccc(cc1)C[C@@H]3N(C)CC2)N(C)CC4 [BA #13]

IC50 ([1]; Homo sapiens, K562/Adr, 48 h): 8.9 µM | IC50 ([2]; Homo sapiens): > 20 µM | IC50 (cancer cell lines): > 20 µM | IC50 [10]: 19.6 µM | IC50 ([3]; Homo sapiens, DU-145, 48 h): > 20 µM
SMILES: COc1cc2c3cc1Oc1c(OC)c(OC)cc4c1[C@@H](Cc1ccc(O)c(c1)Oc1ccc(cc1)C[C@@H]3N(C)CC2)N(C)CC4 [Berbamine]
IC50 ([8]; Homo sapiens, 48 h): 24 µM

IC50 ([2]; Homo sapiens): > 20 µM | IC50 ([3]; Homo sapiens, DU-145, 48 h): > 20 µM
SMILES: O=C1c2ccccc2C(=O)N1CCCOc1ccccc1 [Phthaloyl derivative, reference compound]
